Reference: patent US10189796B2, “[4-(1,3,3-trimethyl-2-oxo-3,4-dihydro-1H-quinoxalin-7-yl)phenoxy]ethyloxy compound or salt thereof” (SANTEN PHARMACEUTICAL CO., LTD., priority 2015, dated 2019)

What was measured:
[1] = system: TNFα production in rat whole blood; assay: TNFα production inhibitory action evaluation test (LPS stimulation ex vivo, ELISA); format: cell-based; settings: 20 hours, 200 μM test compound solution 10 μL/well, DEX treated group = 100, read-out: TNFα production inhibitory ratio (% DEX)
Protocol: In order to evaluate an action of the present compound as a GR agonist, a TNFα production inhibitory action in rat whole blood after LPS stimulation ex vivo was investigated. For the measurement of the TNFα production amount, the ELISA method (manufactured by R&D Systems, Cat No. RTA00) was used, and a procedure was carried out according to the protocol attached thereto. Hereinafter, the specific method will be described.
LPS solution: LPS was dissolved in PBS(−) and diluted with RPMI 1640 to prepare an LPS solution with a concentration of 2 μg/mL.
After the test compound was dissolved in dimethylsulfoxide, the solution was diluted with PBS(−) to prepare 200 μM of a test compound solution. In addition, DEX was similarly dissolved to prepare 200 μM of a DEX solution, and a TNFα production inhibitory ratio of DEX was measured, and used for calculation of Efficacy (% DEX).
• 1) Blood was collected from 3 to 5 rats using an injection syringe treated with heparin from the abdominal aorta under isoflurane anesthesia. The rats confirmed death after lething the whole blood. • 2) The blood of 3 to 5 rats pooled in a 96-well round bottom culture plate was seeded at each 180 μL/well. • 3) It was cultured (37° C., 5% CO2, 95% air) for about 1 hour. • 4) The test compound solution was added each 10 μL/well, and cultured for 1 hour. • 5) LPS solution was added each 10 μL/well. • 6) The sample in which 2% dimethylsulfoxide-containing PBS(−) was added with each 10 μL/well in place of each test compound solution, and RPMI 1640 was added with each 10 μL/well in place of the LPS solution was made a negative control. • 7) The sample in which 2% dimethylsulfoxide-containing PBS(−) was added with each 10 μL/well in place of each test compound solution was made a positive control. • 8) After completion of 20 hours cultivation, the supernatant was recovered and the amount of TNFα released in the supernatant was measured by using an ELISA Kit. • 9) The TNFα production inhibitory ratio was calculated according to the following calculation formula. (Calculation of TNFα Production Inhibitory Ratio)
TNFα production inhibitory ratio (%) was calculated according to the following formula. TNFα production inhibitory ratio (%)=100×{1−(TNFα production amount of each test compound solution−average value of TNFα production amount of negative control group)/(average value of TNFα production amount of positive control group−average value of TNFα production amount of negative control group)}(%)
Further, a TNFα production inhibitory ratio (Efficacy (% DEX)) when the DEX treated group was made 100 was calculated. Efficacy (% DEX)=100×{(average value of TNFα production inhibitory ratio of each test compound solution)/(average value of TNFα production inhibitory ratio of DEX treated group)}(%)

Recombinant human GR = Recombinant human GR (Homo sapiens (Human), UniProt P04150); assay: GR competitive binding assay by fluorescence polarization; settings: 20 μM test compound solution, 10 μL/well; 2 hours; DEX positive control; read-out: GR binding rate (%)
Method in brief: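 Fluorescence polarization competition between test compound and Fluormone GS1 fluorescent glucocorticoid ligand for recombinant human GR. Buffer 10 mM potassium phosphate pH 7.4, 20 mM Na2MoO4, 0.1 mM EDTA, 5 mM DTT, 2% DMSO. 2 h dark incubation at room temperature; binding ratio (%) scaled between buffer-only and DEX controls.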

Sequence of Recombinant human GR (P04150 whole entry): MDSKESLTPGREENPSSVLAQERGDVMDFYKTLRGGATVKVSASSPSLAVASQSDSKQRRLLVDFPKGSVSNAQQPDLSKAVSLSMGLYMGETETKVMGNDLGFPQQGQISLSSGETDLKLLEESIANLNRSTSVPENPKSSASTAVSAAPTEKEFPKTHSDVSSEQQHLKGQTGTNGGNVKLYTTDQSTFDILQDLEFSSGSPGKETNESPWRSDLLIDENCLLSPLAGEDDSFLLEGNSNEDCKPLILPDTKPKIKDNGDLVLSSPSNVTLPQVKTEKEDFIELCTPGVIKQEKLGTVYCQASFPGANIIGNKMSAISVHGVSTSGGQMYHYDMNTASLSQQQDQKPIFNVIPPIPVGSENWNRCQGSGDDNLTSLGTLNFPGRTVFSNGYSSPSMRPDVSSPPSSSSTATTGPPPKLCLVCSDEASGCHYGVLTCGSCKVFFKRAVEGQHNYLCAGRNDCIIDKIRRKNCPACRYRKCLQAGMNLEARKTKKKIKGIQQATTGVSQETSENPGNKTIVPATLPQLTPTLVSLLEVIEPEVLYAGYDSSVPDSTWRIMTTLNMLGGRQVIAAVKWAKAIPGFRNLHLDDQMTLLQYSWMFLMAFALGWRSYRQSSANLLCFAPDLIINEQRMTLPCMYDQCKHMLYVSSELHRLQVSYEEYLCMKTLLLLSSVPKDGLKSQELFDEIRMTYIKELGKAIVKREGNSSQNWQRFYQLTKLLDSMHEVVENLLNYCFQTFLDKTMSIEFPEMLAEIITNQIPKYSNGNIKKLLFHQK

Structure (SMILES)	inhibition at 10 µM (Recombinant human GR) [%]	Emax [1] [%]
COc1cc(OC[C@H](C)O)ccc1-c1ccc2c(c1COc1cc(F)ccc1C)N(C)C(=O)C(C)(C)N2 [Compound 1-1, (S)-8-(5-fluoro-2-methylphenoxymethyl)-7-[4-(2-hydroxypropyl)oxy-2-methoxy-phenyl]-1,3,3-trimethyl-3,4-dihydro-1H-quinoxalin-2-one]	> 99	81
COc1cc(OC[C@@H](O)CCO)ccc1-c1ccc2c(c1COc1cc(F)ccc1C)N(C)C(=O)C(C)(C)N2 [Compound 2-1, (S)-7-[4-(2,4-dihydroxybutyl)oxy-2-methoxyphenyl]-8-(5-fluoro-2-methyl-phenoxymethyl)-1,3,3-trimethyl-3,4-dihydro-1H-quinoxalin-2-one]	> 99	97
COc1cc(OC[C@@H](O)CC#N)ccc1-c1ccc2c(c1COc1cc(F)ccc1C)N(C)C(=O)C(C)(C)N2 [Compound 5-2, (S)-7-[4-(3-cyano-2-hydroxypropyl)oxy-2-methoxyphenyl]-8-(5-fluoro-2-methyl-phenoxymethyl)-1,3,3-trimethyl-3,4-dihydro-1H-quinoxalin-2-one]	> 99	> 99
COc1cc(OC[C@H](C)OC(=O)CN(C)C)ccc1-c1ccc2c(c1COc1cc(F)ccc1C)N(C)C(=O)C(C)(C)N2 [Compound 11-1, (S)-7-[4-[2-(N,N-dimethylaminoacetoxy)propyl]oxy-2-methoxyphenyl]-8-(5-fluoro-2-methylphenoxymethyl)-1,3,3-trimethyl-3,4-dihydro-1H-quinoxalin-2-one]	99	–
COc1ccc(CO)cc1-c1ccc2c(c1COc1cc(F)ccc1C)N(C)C(=O)C(C)(C)N2 [Control compound B, 8-(5-fluoro-2-methylphenoxymethyl)-7-(5-hydroxymethyl-2-methoxyphenyl)-1,3,3-trimethyl-3,4-dihydro-1H-quinoxalin-2-one, reference compound]	> 99	77
COc1ccc(O)cc1-c1ccc2c(c1COc1cc(F)ccc1C)N(C)C(=O)C(C)(C)N2 [Control compound C, 8-(5-fluoro-2-methylphenoxymethyl)-7-(5-hydroxy-2-methoxyphenyl)-1,3,3-trimethyl-3,4-dihydro-1H-quinoxalin-2-one]	> 99	–

Further lines, with some results ahead:

inhibition at 10 µM (Recombinant human GR) [%]	Structure (SMILES)	Emax [1] [%]
98	CCCC(=O)Oc1ccc(-c2ccc3c(c2COc2cc(F)ccc2C)N(C)C(=O)C(C)(C)N3)c(OC)c1 [Control compound D, 7-(4-butyryloxy-2-methoxyphenyl)-8-(5-fluoro-2-methylphenoxymethyl)-1,3,3-trimethyl-3,4-dihydro-1H-quinoxalin-2-one, reference compound]	–
98	COc1ccc(-c2ccc3c(c2COc2cc(F)ccc2C)N(C)C(=O)C(C)(C)N3)c(OC)c1 [Control compound E, 7-(2,4-dimethoxyphenyl)-8-(5-fluoro-2-methyl-phenoxymethyl)-1,3,3-trimethyl-3,4-dihydro-1H-quinoxalin-2-one, reference compound]	0
94	COCOc1ccc(-c2ccc3c(c2COc2cc(F)ccc2C)N(C)C(=O)C(C)(C)N3)c(OC)c1 [Control compound F, 8-(5-fluoro-2-methylphenoxymethyl)-7-(2-methoxy-4-methoxymethoxyphenyl)-1,3,3-trimethyl-3,4-dihydro-1H-quinoxalin-2-one, reference compound]	69
